Experimental data published in US8304216B2, “Method for production of erythro-or threo-2-amino-3-hydroxypropionic acid ester, novel carbonyl reductase, gene for the reductase, vector, transformant, and method for production of optically active alcohol using those” (Kaneka Corporation, priority 2006, dated 2012).

system: purified polypeptide (carbonyl reductase) from the Brevundimonas diminuta NBRC 12697 strain; test: Substrate specificity of purified polypeptide: reducing activity against carbonyl compounds (NADH decrease at 340 nm); type: biochemical; conditions: substrate 2 mM, NADH 0.167 mM, 100 mM phosphate buffer pH 6.5, 0.4% (v/v) DMSO, 30° C., 3 minutes; activity against ethyl N-Boc-2-amino-3-cyclohexyl-3-oxopropionate taken as 100%

| Compound | relative activity [%] |
| --- | --- |
| CC(=O)c1cccc(Cl)c1 [m-chloroacetophenone] | 4368 |
| O=Cc1ccc(Cl)cc1 [p-chlorobenzaldehyde] | 445 |
| CC(=O)c1ccc(Cl)cc1 [p-chloroacetophenone] | 534 |
| COC(=O)CC(C)=O [Methyl acetoacetate] | 1095 |
| CCCC(=O)C(=O)OCC [Ethyl 2-oxopentanoate] | 6046 |
| CC(=O)c1ccco1 [2-acetylfuran] | 164 |
| CCOC(=O)C(Cl)C(C)=O (centres unmarked) [Ethyl 2-chloroacetoacetate] | 7264 |
| CCOC(=O)C(NC(=O)OC(C)(C)C)C(=O)C1CCCCC1 (centres unmarked) [Ethyl N-Boc-2-amino-3-cyclohexyl-3-oxopropionate] | 100 |
| CCOC(=O)CC(=O)CCl [Ethyl 4-chloroacetoacetate] | 533470 |
| COC(=O)C(C)=O [Methyl pyruvate] | 5625 |
| O=Cc1ccccc1Cl [o-chlorobenzaldehyde] | 1219 |
| CCOC(=O)C1CCCC1=O (centres unmarked) [Ethyl 2-oxocyclopentanecarboxylate] | 199 |
| CCOC(=O)C(=O)c1ccccc1 [Ethyl benzoylformate] | 12198 |
| CCCCC(C)=O [2-hexanone] | 1540 |
| O=C1CCSC1 [tetrahydrothiophen-3-one] | 156 |
| CC(=O)c1ccccc1Cl [o-chloroacetophenone] | 350 |
| O=Cc1cccc(Cl)c1 [m-chlorobenzaldehyde] | 2138 |
| O=C(CCl)c1cccc(Cl)c1 [2,3′-dichloroacetophenone] | 12719 |
| O=C(c1ccccc1)C(F)(F)F [2,2,2-trifluoroacetophenone] | 42277 |
| CC(=O)c1ccncc1 [4-acetylpyrridine] | 1149 |
| CCCCCC=O [n-hexylaldehyde] | 2160 |
| CCOC(=O)C(C)C(C)=O (centres unmarked) [Ethyl 2-methylacetoacetate] | 425 |
| CC(=O)C(C)=O [diacetyl] | 4830 |
| CC(=O)C=O [methylglyoxal] | 248 |
| CC(C=O)c1ccccc1 (centres unmarked) [2-phenylpropionaldehyde] | 621 |
| O=C(CCl)c1ccccc1 [2-chloroacetophenone] | 12789 |
| CC12CCC(C(=O)C1=O)C2(C)C (centres unmarked) [camphorquinone] | 4737 |
| CCOC(=O)C(Cl)C(=O)c1ccccc1 (centres unmarked) [Ethyl 2-chloro-3-oxo-3-phenylpropionate] | 1139 |
| CC(=O)CC(C)=O [acetylacetone] | 273 |
